Experimental findings from US20120264231A1, “ASSAY FOR ORAI CALCIUM CHANNEL REGULATORS” (IMMUNE DISEASE INSTITUTE, INC., priority 2009, published 2012) are described below.

The nature of assay [1]: Fura-2 Ca^2+ flux assay, control vesicles. It is filed as biochemical, S cerevisiae. The conditions noted are these: STIM 1 cytoplasmic fragments 2 μM. Here is the method:
It was next asked whether STIM-ORAI protein-protein interaction is sufficient to open the ORAI Ca^2+ channel. Vesicles obtained from S cerevisiae expressing ORAI were incubated under conditions where Fura-2 was the principal Ca^2+ buffer in the extravesicular solution in order to monitor Ca^2+ efflux (Meyer, T., et al., Biochemistry 29, 32-37 (1990)).
S cerevisiae strain NY17 featuring the temperature-sensitive sec6-4 mutation was used for protein expression and purification of secretory vesicles as described (Nakamoto, R. K., et al., J Biol Chem 266, 7940-7949 (1991); Coury, L. A., et al., Methods Enzymol 306, 169-186 (1999)). Cells were grown to midlog phase at 25° C. in uracil-deficient synthetic complete medium containing glucose, which was subsequently exchanged for galactose to induce transgene expression over a period of 8 hours. The temperature was then switched to 37° C. for 3 hours to force intracellular accumulation of secretory vesicles. […] Myc-tagged ORAI1 was detected in Western blots using the murine anti-Myc monoclonal antibody 9E10. […]
Fura-2 spectra were recorded at ambient temperature, 22-25° C., in 20 mM Tris pH 7.4, 100 mM KCl, containing 10 μM metal-free Fura-2. Excitation spectra were recorded by scanning from 300-450 nm while monitoring emission at 510 nm, using a 2-4 nm slitwidth for both excitation and emission. […]

Assay [2] addresses T1, GST-ORAI1 (65-87) (Homo sapiens, UniProt Q96D31).
T1 construct: A plasmid encoding ORAI1 (65-87) as a GST fusion protein; made in house; host or cells: E. coli BL21 (DE3), pGEX-2T
Briefly: GST pull down assay with GST-ORAI1 (65-87). In kind it is binding. The text has this: A conserved region of ORAI1 immediately preceding, and extending into, ORAI1 transmembrane segment 1 is implicated in channel opening (Feske et al., Nature 441: 179-185 (2006); Li et al., J. Biol. Chem. 282: 29448-29456 (2007); Park et al., Cell 136: 876-890 (2009); Derler et al., J. Biol. Chem. 284: 15903-15915 (2009)), and GFP-ORAI1 (48-91) expressed in mammalian cells co-immunoprecipitates with STIM1 (342-448) (Park et al., Cell 136: 876-890 (2009)). Here again, the protein-protein interaction is direct, because purified recombinant STIM1CT bound to purified GST-ORAI1 (65-87) (FIG. 2C).
The cDNAs encoding mouse STIM 1^CT fragments (residues 233-685, 233-666, 233-600, 233-531, 233-498, or 233-463) were amplified via PCR and cloned into the pProEX HTb vector (Invitrogen) between the BamHI and XhoI sites for expression as His-tagged proteins. For production of the C-terminal cytoplasmic tail of ORAI 1 as a GST fusion protein, coupled to GST through the flexible linker—GSGSRGSPEF—(SEQ ID NO: 1), cDNA encoding ORAI1 residues 259-301 was amplified using PCR and cloned into the pGEX-4T-1 vector (GE Healthcare) between the BamHI and NotI sites. A plasmid encoding ORAI1 (65-87) as a GST fusion protein with the linker—GSGGGS—(SEQ ID NO: 9) was produced by inserting the corresponding Cdna into the pGEX-2T vector (GE Healthcare). […]

T1 sequence (Q96D31 65-87 limits assumed): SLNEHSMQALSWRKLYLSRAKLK

For the substance “STIM1^CT: cytoplasmic region of STIM1, mouse residues 233-685, His-tagged recombinant protein expressed in E coli”, in assay [1], the “Ca^2+ release from control vesicles (Fura-2)” value is “neither STIM 1 fragment was effective”. In addition, in assay [2], the “binding to purified GST-ORAI1 (65-87)” value was “bound” and the “strength of interaction compared with STIM1^CT-ORAI1^CT interaction” value is “weaker”.
“STIM1 (233-498): truncated mouse STIM1 cytoplasmic fragment, residues 233-498, His-tagged recombinant protein”: in assay [1], the “Ca^2+ release from control vesicles (Fura-2)” value was “neither STIM 1 fragment was effective”.
